Here are results for 30 compounds from patent US12344597B2, “Alkoxy-substituted pyridinyl derivatives as LPA1 receptor antagonists and their use in the treatment of fibrosis” (IDORSIA PHARMACEUTICALS LTD, priority 2018, dated 2025).

As a reminder, the IC50 is the concentration that inhibits the measured activity by half.

Sequence of human LPA1 receptor (Q92633 whole entry, the tested form may be a part): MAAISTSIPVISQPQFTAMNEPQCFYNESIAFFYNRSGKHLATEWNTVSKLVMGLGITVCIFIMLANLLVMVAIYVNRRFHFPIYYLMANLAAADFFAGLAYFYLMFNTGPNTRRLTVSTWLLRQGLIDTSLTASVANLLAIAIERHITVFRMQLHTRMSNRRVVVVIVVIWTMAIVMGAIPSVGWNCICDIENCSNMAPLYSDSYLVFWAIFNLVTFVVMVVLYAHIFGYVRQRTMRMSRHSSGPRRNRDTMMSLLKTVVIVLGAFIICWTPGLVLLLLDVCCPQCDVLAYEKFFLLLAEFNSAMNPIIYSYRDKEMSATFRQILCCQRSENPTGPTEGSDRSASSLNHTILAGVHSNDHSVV

The target of the assay is human LPA1 receptor (Homo sapiens (Human), UniProt Q92633). Description: Beta-arrestin recruitment assay to determine IC50 values for human LPAR1. In kind it is cell-based. The following applies: antagonist mode, Tango EDG2-bla U2OS cells, LPA 18:1 500 nM final. An outline of the steps:
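Antagonist IC50 = concentration giving 50% inhibition of maximal LPA response. Read-out is beta-lactamase reporter activity after arrestin-protease recruitment in U2OS cells bearing LPA1-TEV-Gal4-VP16 construct; cells pre-incubated 20 h, 37 °C, 5% CO2.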
In general terms: Activated receptors often draw arrestin, which recruitment assays turn into a signal.
In turn, `Cc1ccc(NC(=O)C2(c3ccccc3C(C)C)CN(C(=O)C3CS(=O)(=O)C3)C2)c(OC(F)F)n1` [Ex 12-129, N-(2-(difluoromethoxy)-6-methylpyridin-3-yl)-1-(1,1-dioxidothietane-3-carbonyl)-3-(2-isopropylphenyl)azetidine-3-carboxamide] showed an IC50 of 58 nM.

Take `Cc1ccc(NC(=O)C2(c3ccccc3C(C)C)CN(CC(C)N)C2)c(OC(F)F)n1` (stereo not drawn) [Ex 11-11, 1-(2-aminopropyl)-N-(2-(difluoromethoxy)-6-methylpyridin-3-yl)-3-(2-isopropylphenyl)azetidine-3-carboxamide]: the half-maximal inhibitory concentration (IC50) was determined as 5 nM.

Regarding `CNC[C@H](O)CN1CC(C(=O)Nc2ccc(C)nc2OC(F)F)(c2ccccc2C(C)C)C1` [Ex 11-84, (S)-N-(2-(difluoromethoxy)-6-methylpyridin-3-yl)-1-(2-hydroxy-3-(methylamino)propyl)-3-(2-isopropylphenyl)azetidine-3-carboxamide], the IC50 worked out at 45 nM.

Compound `Cc1ccc(NC(=O)C2(c3ccccc3C(C)C)CN(C[C@@H](O)CN(C)C)C2)c(OC(F)F)n1` [Ex 11-85, (S)-N-(2-(difluoromethoxy)-6-methylpyridin-3-yl)-1-(3-(dimethylamino)-2-hydroxypropyl)-3-(2-isopropylphenyl)azetidine-3-carboxamide] came in with an IC50 of 191 nM.

Take `COC(=O)C(C)(C)CC(=O)N1CC(C(=O)Nc2ccc(OC)nc2OC)(c2ccccc2C(C)C)C1` [Ex 12-85, methyl 4-(3-((2,6-dimethoxypyridin-3-yl)carbamoyl)-3-(2-isopropylphenyl)azetidin-1-yl)-2,2-dimethyl-4-oxobutanoate]: the 50% inhibitory concentration (IC50) worked out at 140 nM.

As for `COc1ccc(C(C)C)c(C2(C(=O)Nc3ccc(C)nc3OC(F)F)CN(C(=O)CC(C)(C)C(=O)O)C2)c1` [Ex 39-6, 4-(3-((2-(difluoromethoxy)-6-methylpyridin-3-yl)carbamoyl)-3-(2-isopropyl-5-methoxyphenyl)azetidin-1-yl)-2,2-dimethyl-4-oxobutanoic acid], the half-inhibitory concentration (IC50) was found to be 56 nM.

In turn, `Cc1ccc(NC(=O)C2(c3ccccc3C(C)C)CN(C(=O)C3C4CC3(C(=O)O)C4)C2)c(OC(F)F)n1` (stereo not drawn) [Ex 12-108, 2-(3-((2-(difluoromethoxy)-6-methylpyridin-3-yl)carbamoyl)-3-(2-isopropylphenyl)azetidine-1-carbonyl)bicyclo[1.1.1]pentane-1-carboxylic acid] displayed an IC50 of 28 nM.

As to `Cc1ccc(NC(=O)C2(c3ccccc3C(C)C)CN(CCC3(C(=O)O)CCOC3)C2)c(OC(F)F)n1` (stereo not drawn) [Ex 11-76, 3-(2-(3-((2-(difluoromethoxy)-6-methylpyridin-3-yl)carbamoyl)-3-(2-isopropylphenyl)azetidin-1-yl)ethyl)tetrahydrofuran-3-carboxylic acid], inhibition was half-maximal at 18 nM (IC50).

Consider `Cc1ccc(NC(=O)C2(c3ccccc3C(C)C)CN(CC(C)(C)CO)C2)c(OC(F)F)n1` [Ex 11-17, N-(2-(difluoromethoxy)-6-methylpyridin-3-yl)-1-(3-hydroxy-2,2-dimethylpropyl)-3-(2-isopropylphenyl)azetidine-3-carboxamide], for which the IC50 amounted to 48 nM.

Turning to `Cc1ccc(C2(C(=O)Nc3ccc(C)nc3OC(F)F)CN(C(=O)CC(C)(C)C(=O)O)C2)c(C(C)C)c1` [Ex 39-3, 4-(3-((2-(difluoromethoxy)-6-methylpyridin-3-yl)carbamoyl)-3-(2-isopropyl-4-methylphenyl)azetidin-1-yl)-2,2-dimethyl-4-oxobutanoic acid], the IC50 stood at 40 nM.

As to `Cc1ccc(NC(=O)C2(c3ccccc3C(C)C)CN(C(=O)CN(C)S(N)(=O)=O)C2)c(OC(F)F)n1` [Ex 12-8, N-(2-(difluoromethoxy)-6-methylpyridin-3-yl)-3-(2-isopropylphenyl)-1-(N-methyl-N-sulfamoylglycyl)azetidine-3-carboxamide], it took 10 nM to reach half-maximal inhibition (IC50).

Take `Cc1ccc(NC(=O)C2(c3ccccc3C(C)C)CN(C(=O)CCCc3nnn[nH]3)C2)c(OC(F)F)n1` [Ex 12-30, 1-(4-(1H-tetrazol-5-yl)butanoyl)-N-(2-(difluoromethoxy)-6-methylpyridin-3-yl)-3-(2-isopropylphenyl)azetidine-3-carboxamide]: the IC50 is 25 nM.

Compound `Cc1ccc(NC(=O)C2(c3ncccc3C(C)C)CN(C(=O)NC3CC3)C2)c(OC(F)F)n1` [Ex 63, N1-cyclopropyl-N3-(2-(difluoromethoxy)-6-methylpyridin-3-yl)-3-(3-isopropylpyridin-2-yl)azetidine-1,3-dicarboxamide] yielded an IC50 of 8 nM.

In the case of `Cc1ccc(NC(=O)C2(c3ccccc3C(C)C)CN(C(=O)CC3(O)COC3)C2)c(OC(F)F)n1` [Ex 12-13, N-(2-(difluoromethoxy)-6-methylpyridin-3-yl)-1-(2-(3-hydroxyoxetan-3-yl)acetyl)-3-(2-isopropylphenyl)azetidine-3-carboxamide], half-maximal inhibition (IC50) required 17 nM.

On to `Cc1ccc(NC(=O)C2(c3ccccc3C(C)C)CN(C(=O)CNC(C)(C)CC(=O)O)C2)c(OC(F)F)n1` [Ex 47, 3-((2-(3-((2-(difluoromethoxy)-6-methylpyridin-3-yl)carbamoyl)-3-(2-isopropylphenyl)azetidin-1-yl)-2-oxoethyl)amino)-3-methylbutanoic acid], for which inhibition was half-maximal at 95 nM (IC50).

Compound `COC(=O)C1(COC(=O)N2CC(C(=O)Nc3ccc(C)nc3OC(F)F)(c3ccccc3C(C)C)C2)CC1` [Ex 14-11, (1-(methoxycarbonyl)cyclopropyl)methyl 3-((2-(difluoromethoxy)-6-methylpyridin-3-yl)carbamoyl)-3-(2-isopropylphenyl)azetidine-1-carboxylate] gave an IC50 of 127 nM.

Compound `Cc1ccc(NC(=O)C2(c3ccccc3C3=CCCC3)CNC2)c(OC(F)F)n1` [Ex 26, 3-(2-(cyclopent-1-en-1-yl)phenyl)-N-(2-(difluoromethoxy)-6-methylpyridin-3-yl)azetidine-3-carboxamide] yielded a 50% inhibitory concentration (IC50) of 235 nM.

`Cc1ccc(NC(=O)C2(c3ccccc3C(C)C)CN(C(=O)NCC(=O)O)C2)c(OC(F)F)n1` [Ex 17-4, (3-((2-(difluoromethoxy)-6-methylpyridin-3-yl)carbamoyl)-3-(2-isopropylphenyl)azetidine-1-carbonyl)glycine]: the IC50 was 34 nM.

`Cc1cnc(NC(=O)C2(c3ccccc3C(C)C)CN(S(=O)(=O)CCC(=O)OCc3ccccc3)C2)c(OC(F)F)c1` [Ex 80-1, benzyl 3-((3-((3-(difluoromethoxy)-5-methylpyridin-2-yl)carbamoyl)-3-(2-isopropylphenyl)azetidin-1-yl)sulfonyl)propanoate] came in with an IC50 of 55 nM.

Take “N-(2-(difluoromethoxy)-6-methylpyridin-3-yl)-1-(2-(1-(2-hydroxyethyl)piperidin-4-yl)acetyl)-3-(2-isopropylphenyl)azetidine-3-carboxamide [Ex 12-140]”: the half-inhibitory concentration (IC50) came out at 122 nM.

In turn, `COc1nc(C)ccc1NC(=O)C1(c2ccccc2C(C)C)CN(C(=O)CCC(=O)O)C1` [Ex 12-62, 4-(3-(2-isopropylphenyl)-3-((2-methoxy-6-methylpyridin-3-yl)carbamoyl)azetidin-1-yl)-4-oxobutanoic acid] showed an IC50 of 65 nM.

In turn, `Cc1ccc(NC(=O)C2(c3ccccc3C(C)C)CN(Cc3c[nH]nc3C(=O)O)C2)c(OC(F)F)n1` [Ex 11-38, 4-((3-((2-(difluoromethoxy)-6-methylpyridin-3-yl)carbamoyl)-3-(2-isopropylphenyl)azetidin-1-yl)methyl)-1H-pyrazole-3-carboxylic acid] showed an IC50 of 270 nM.

As for `Cc1ccc(NC(=O)C2(c3ccccc3C(C)C)CCN(S(=O)(=O)CCC(=O)OCc3ccccc3)CC2)c(OC(F)F)n1` [Ex 13-7, benzyl 3-((4-((2-(difluoromethoxy)-6-methylpyridin-3-yl)carbamoyl)-4-(2-isopropylphenyl)piperidin-1-yl)sulfonyl)propanoate], the IC50 came to 17 nM.

In turn, `CCCNS(=O)(=O)N1CC(C(=O)Nc2ccc(C)nc2OC(F)F)(c2ccccc2C(C)C)C1` [Ex 15-11, N-(2-(difluoromethoxy)-6-methylpyridin-3-yl)-3-(2-isopropylphenyl)-1-(N-propylsulfamoyl)azetidine-3-carboxamide] came in with an IC50 of 6 nM.

In the case of `Cc1ccc(NC(=O)C2(c3ccccc3C(C)C)CN(C(=O)CC3(N)COC3)C2)c(OC(F)F)n1` [Ex 12-38, 1-(2-(3-aminooxetan-3-yl)acetyl)-N-(2-(difluoromethoxy)-6-methylpyridin-3-yl)-3-(2-isopropylphenyl)azetidine-3-carboxamide], it took 25 nM to reach half-maximal inhibition (IC50).

Regarding `Cc1ccc(NC(=O)C2(c3ccccc3C(C)C)CN(C[C@@H](O)CNC(=O)CO)C2)c(OC(F)F)n1` [Ex 11-86, (S)-N-(2-(difluoromethoxy)-6-methylpyridin-3-yl)-1-(2-hydroxy-3-(2-hydroxyacetamido)propyl)-3-(2-isopropylphenyl)azetidine-3-carboxamide], the IC50 worked out at 10 nM.

As to `Cc1ccc(NC(=O)C2(c3ccccc3C(C)C)CN(C(=O)OCC(C)(C)C(=O)O)C2)c(OC(F)F)n1` [Ex 14-10, 3-((3-((2-(difluoromethoxy)-6-methylpyridin-3-yl)carbamoyl)-3-(2-isopropylphenyl)azetidine-1-carbonyl)oxy)-2,2-dimethylpropanoic acid], the IC50 came to 4 nM.

Consider `COC(=O)C(C)(C)CS(=O)(=O)N1CC(C(=O)Nc2ccc(C)nc2OC(F)F)(c2ccccc2C(C)C)C1` [Ex 13-11, methyl 3-((3-((2-(difluoromethoxy)-6-methylpyridin-3-yl)carbamoyl)-3-(2-isopropylphenyl)azetidin-1-yl)sulfonyl)-2,2-dimethylpropanoate], for which the IC50 is 366 nM.

With `CC(C)c1ccccc1C1(C(=O)Nc2cccnc2OC(F)F)CN(c2ccc(C#N)cn2)C1` [Ex 18-23, 1-(5-cyanopyridin-2-yl)-N-(2-(difluoromethoxy)pyridin-3-yl)-3-(2-isopropylphenyl)azetidine-3-carboxamide], the IC50 was 4 nM.

In turn, `Cc1ccc(C2(C(=O)Nc3ccc(C)nc3OC(F)F)CNC2)c(C(C)C)c1` [Ex 35, N-(2-(difluoromethoxy)-6-methylpyridin-3-yl)-3-(2-isopropyl-4-methylphenyl)azetidine-3-carboxamide] gave an IC50 of 75 nM.
